PMC8119466, “A screen of FDA-approved drugs identifies inhibitors of protein tyrosine phosphatase 4A3 (PTP4A3 or PRL-3)” (Scientific Reports, 2021)
Structures can show the parent of a compound that is named as a salt. Where two headings read alike, the source gives them in different places.

How the values were obtained:
Format in all cases: biochemical
recombinant PRL-3 = target: T1, recombinant PRL-3 (Homo sapiens, UniProt O75365); experiment: In vitro phosphatase assay (DiFMUP hydrolysis), PRL-3; further: test concentration or dose not given here
T1 construct: 6xHis (N, cleaved yes); made in house; host or cells: E. coli One Shot BL21 Star

recombinant PRL-2 = target: T2, recombinant PRL-2 (Homo sapiens, UniProt Q12974); experiment: In vitro phosphatase assay (DiFMUP hydrolysis), PRL-2;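 further: PRL-2 activity read as DiFMUP hydrolysis after 20 min at room temperature with drug, enzyme first pre-reduced at 4 °C for 20 min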
T2 construct: 6xHis (N, cleaved yes); made in house; host or cells: E. coli One Shot BL21 Star
T2 sequence (Q12974 1-167): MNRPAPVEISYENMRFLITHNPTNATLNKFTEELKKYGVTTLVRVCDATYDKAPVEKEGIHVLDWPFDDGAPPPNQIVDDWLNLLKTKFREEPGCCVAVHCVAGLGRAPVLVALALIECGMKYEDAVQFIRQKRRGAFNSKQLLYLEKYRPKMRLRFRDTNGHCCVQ

recombinant PRL-1 = target: T3, recombinant PRL-1 (Homo sapiens, UniProt Q93096); experiment: In vitro phosphatase assay (DiFMUP hydrolysis), PRL-1; further: test concentration or dose not given here
T3 construct: 6xHis (N, cleaved yes); made in house; host or cells: E. coli One Shot BL21 Star
T3 sequence (Q93096 1-173): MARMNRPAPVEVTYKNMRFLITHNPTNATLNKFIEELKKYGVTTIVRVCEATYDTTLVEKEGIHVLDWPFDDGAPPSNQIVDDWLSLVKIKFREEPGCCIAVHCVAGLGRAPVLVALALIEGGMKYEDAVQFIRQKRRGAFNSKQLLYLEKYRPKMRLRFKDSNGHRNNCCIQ

[1] = FDA-approved drug screen, compared to DMSO

T1 sequence (O75365 whole entry): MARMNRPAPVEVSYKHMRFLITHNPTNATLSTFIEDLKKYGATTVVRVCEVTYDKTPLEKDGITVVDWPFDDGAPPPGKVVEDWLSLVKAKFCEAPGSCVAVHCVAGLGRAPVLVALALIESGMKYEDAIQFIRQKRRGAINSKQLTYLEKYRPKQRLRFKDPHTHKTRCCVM

Row | Structure (SMILES) | % Phosphatase Activity (compared to DMSO) PRL-3 (recombinant PRL-3) [%] | % Phosphatase Activity (compared to DMSO) PRL-2 (recombinant PRL-2) [%] | % Phosphatase Activity (compared to DMSO) PRL-1 (recombinant PRL-1) [%] | % Phosphatase Activity (compared to DMSO) PRL-3 (recombinant PRL-3; [1]) [%] | % Phosphatase Activity (compared to DMSO) PRL-2 (recombinant PRL-2; [1]) [%] | % Phosphatase Activity (compared to DMSO) PRL-1 (recombinant PRL-1; [1]) [%]
1 | OCCOCCN1CCN(C2=Nc3ccccc3Sc3ccccc32)CC1 [Quetiapine Fumarate] | 93 | 87 | 80 | – | – | –
2 | CCOC(=O)[C@H](CCc1ccccc1)N[C@@H](C)C(=O)N1Cc2ccccc2C[C@H]1C(=O)O [Quinapril HCl] | – | – | – | 80 | 106 | 92
3 | Cn1cc(CNCC2CCN(c3ncc(C(=O)NO)cn3)CC2)c2ccccc21 [Quisinostat (JNJ-26481585)] | – | – | – | 92 | 109 | 121
4 | CC(C)(C)c1cc(NC(=O)Nc2ccc(-c3cn4c(n3)sc3cc(OCCN5CCOCC5)ccc34)cc2)no1 [Quizartinib (AC220)] | – | – | – | 97 | 114 | 112
5 | COc1cc(Nc2ncc(F)c(Nc3ccc4c(n3)N(COP(=O)([O-])[O-])C(=O)C(C)(C)O4)n2)cc(OC)c1OC.[Na+].[Na+] [R788 (Fostamatinib) Disodium] | – | – | – | 88 | 119 | 90
6 | CC(=O)SCC(Cc1ccccc1)C(=O)NCC(=O)OCc1ccccc1 (stereo not drawn) [Racecadotril] | – | – | – | 76 | 99 | 95
7 | Cc1cn(-c2cc(NC(=O)c3ccc(C)c(Nc4nccc(-c5cnccn5)n4)c3)cc(C(F)(F)F)c2)cn1 [Radotinib] | – | – | – | 89 | 83 | 96
8 | O=C(c1ccc(OCCN2CCCCC2)cc1)c1c(-c2ccc(O)cc2)sc2cc(O)ccc12 [Raloxifene HCl] | – | – | – | 74 | 96 | 95
9 | Cc1nnc(C(=O)NC(C)(C)c2nc(C(=O)NCc3ccc(F)cc3)c(O)c(=O)n2C)o1 [Raltegravir (MK-0518)] | – | – | – | 90 | 105 | 96
10 | Cc1nc2ccc(CN(C)c3ccc(C(=O)N[C@@H](CCC(=O)O)C(=O)O)s3)cc2c(=O)[nH]1 [Raltitrexed] | – | – | – | 71 | 71 | 80
11 | CCC(=O)NCC[C@@H]1CCc2ccc3c(c21)CCO3 [Ramelteon] | – | – | – | 73 | 96 | 91
12 | CCOC(=O)[C@H](CCc1ccccc1)N[C@@H](C)C(=O)N1[C@H](C(=O)O)C[C@@H]2CCC[C@@H]21 [Ramipril] | – | – | – | 93 | 86 | 84
13 | CNC(=C[N+](=O)[O-])NCCSCc1ccc(CN(C)C)o1 [Ranitidine] | – | – | – | 103 | 102 | 93
14 | COc1ccccc1OCC(O)CN1CCN(CC(=O)Nc2c(C)cccc2C)CC1.Cl.Cl (stereo not drawn) [Ranolazine 2HCl] | – | – | – | 97 | 99 | 107
15 | COc1ccccc1OCC(O)CN1CCN(CC(=O)Nc2c(C)cccc2C)CC1 (stereo not drawn) [Ranolazine] | – | – | – | 118 | 99 | 90
16 | CO[C@H]1C[C@@H]2CC[C@@H](C)[C@@](O)(O2)C(=O)C(=O)N2CCCC[C@H]2C(=O)O[C@H]([C@H](C)C[C@@H]2CC[C@@H](O)[C@H](OC)C2)CC(=O)[C@H](C)/C=C(\C)[C@@H](O)[C@@H](OC)C(=O)[C@H](C)C[C@H](C)/C=C/C=C/C=C/1C [Rapamycin (Sirolimus)] | – | – | – | 75 | 89 | 88
17 | C#CCN[C@@H]1CCc2ccccc21 [Rasagiline Mesylate] | 99 | 130 | 116 | – | – | –
18 | O=C(NC(Cc1cc(=O)[nH]c2ccccc12)C(=O)O)c1ccc(Cl)cc1 (stereo not drawn) [Rebamipide] | – | – | – | 92 | 93 | 88

Row | Structure (SMILES) | % Phosphatase Activity (compared to DMSO) PRL-3 (recombinant PRL-3) [%] | % Phosphatase Activity (compared to DMSO) PRL-2 (recombinant PRL-2) [%] | % Phosphatase Activity (compared to DMSO) PRL-1 (recombinant PRL-1) [%] | % Phosphatase Activity (compared to DMSO) PRL-3 (recombinant PRL-3; [1]) [%] | % Phosphatase Activity (compared to DMSO) PRL-2 (recombinant PRL-2; [1]) [%] | % Phosphatase Activity (compared to DMSO) PRL-1 (recombinant PRL-1; [1]) [%]
19 | COCCCOc1ccnc(C[S+]([O-])c2nc3ccccc3[n-]2)c1C.[Na+] (stereo not drawn) [Rebeprazole sodium] | – | – | – | 78 | 99 | 97
20 | CCOc1ccccc1OC(c1ccccc1)C1CNCCO1.CS(=O)(=O)O (stereo not drawn) [Reboxetine mesylate] | – | – | – | 99 | 118 | 125
21 | CNC(=O)c1cc(Oc2ccc(NC(=O)Nc3ccc(Cl)c(C(F)(F)F)c3)c(F)c2)ccn1 [Regorafenib (BAY 73-4506)] | – | – | – | 79 | 88 | 86
22 | CCOc1cc(CC(=O)N[C@@H](CC(C)C)c2ccccc2N2CCCCC2)ccc1C(=O)O [Repaglinide] | – | – | – | 87 | 81 | 96
23 | COC(=O)[C@H]1[C@H]2C[C@@H]3c4[nH]c5cc(OC)ccc5c4CCN3C[C@H]2C[C@@H](OC(=O)c2cc(OC)c(OC)c(OC)c2)[C@@H]1OC [Reserpine] | – | – | – | 92 | 105 | 110
24 | CN(C)Cc1ccc(S(=O)(=O)n2ccc(/C=C/C(=O)NO)c2)cc1 [Resminostat] | – | – | – | 90 | 113 | 102
25 | Oc1cccc(O)c1 [Resorcinol] | – | – | – | 77 | 88 | 100
26 | Oc1ccc(/C=C/c2cc(O)cc(O)c2)cc1 [Resveratrol] | – | – | – | 84 | 112 | 107
27 | C=C[C@]1(C)C[C@@H](OC(=O)CS[C@@H]2C[C@H]3CC[C@@H](C2)N3C)[C@]2(C)[C@H](C)CC[C@]3(CCC(=O)[C@H]32)[C@@H](C)[C@@H]1O [Retapamulin] | – | – | – | 67 | 123 | 85
28 | NC(=O)c1ncn([C@@H]2O[C@H](CO)[C@@H](O)[C@H]2O)n1 [Ribavirin] | – | – | – | 83 | 108 | 105
29 | CO[C@H]1/C=C/O[C@@]2(C)Oc3c(C)c(O)c4c(c3C2=O)C2=NC3(CCN(CC(C)C)CC3)NC2=C(NC(=O)/C(C)=C\C=C\[C@H](C)[C@H](O)[C@@H](C)[C@@H](O)[C@@H](C)[C@H](OC(C)=O)[C@@H]1C)C4=O [Rifabutin] | – | – | – | 72 | 63 | 61
30 | CO[C@H]1/C=C/O[C@@]2(C)Oc3c(C)c(O)c4c(O)c(c(/C=N/N5CCN(C)CC5)c(O)c4c3C2=O)NC(=O)/C(C)=C\C=C\[C@H](C)[C@H](O)[C@@H](C)[C@@H](O)[C@@H](C)[C@H](OC(C)=O)[C@@H]1C [Rifampin] | – | – | – | 71 | 49 | 58
31 | CO[C@H]1/C=C/O[C@@]2(C)Oc3c(C)c(O)c4c(O)c(c(/C=N/N5CCN(C6CCCC6)CC5)c(O)c4c3C2=O)NC(=O)/C(C)=C\C=C\[C@H](C)[C@H](O)[C@@H](C)[C@@H](O)[C@@H](C)[C@H](OC(C)=O)[C@@H]1C [Rifapentine] | – | – | – | 74 | 57 | 61
32 | CO[C@H]1/C=C/O[C@@]2(C)Oc3c(C)c(O)c4c(O)c(c5c(nc6cc(C)ccn65)c4c3C2=O)NC(=O)/C(C)=C\C=C\[C@H](C)[C@H](O)[C@@H](C)[C@@H](O)[C@@H](C)[C@H](OC(C)=O)[C@@H]1C [Rifaximin] | – | – | – | 79 | 60 | 64
33 | COc1cc(OC)c(/C=C/S(=O)(=O)Cc2ccc(OC)c(NCC(=O)O)c2)c(OC)c1 [Rigosertib (ON-01910)] | – | – | – | 78 | 86 | 95
34 | Cc1cc(/C=C/C#N)cc(C)c1Nc1ccnc(Nc2ccc(C#N)cc2)n1 [Rilpivirine] | – | – | – | 136 | 116 | 139
35 | CC(N)C12CC3CC(CC(C3)C1)C2 (stereo not drawn) [Rimantadine] | – | – | – | 80 | 106 | 91
36 | Cc1c(C(=O)NN2CCCCC2)nn(-c2ccc(Cl)cc2Cl)c1-c1ccc(Cl)cc1 [Rimonabant] | – | – | – | 98 | 116 | 103
